Test results from PubChem BioAssay AID248 (DTP/NCI, 2004).
Values joined by “and” are separate entries in the source; they are usually repeats but may differ in a detail not shown here. Equal entries are not always repeated. Inconclusive results and toxic doses are left out. Cut-off read from the data, not from the text of the source: active = T/C of 150% or more; inactive = T/C below 125%.

Test system: L1210 leukemia ip in BDF1 mice, survival T/C
Assay: NCI In Vivo Anticancer Drug Screen. Data for tumor model L1210 Leukemia (intraperitoneal) in B6D2F1 (BDF1) mice
Conditions: endpoint: mean survival time, higher = longer survival
Outline: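 In this screen, tumor-bearing mice given compound are compared to those given vehicle, and their survival values are reported as a treated-to-control quotient.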

[1] = dose: 100.0 mg/kg/injection, schedule: Q04DX002 (ip), vehicle: Klucel (hydroxypropylcellulose) (HPC)
[2] = dose: 200.0 mg/kg/injection, schedule: Q04DX002 (ip), vehicle: Klucel (hydroxypropylcellulose) (HPC)
[3] = dose: 100.0 mg/kg/injection, schedule: Q04DX003 (ip), vehicle: saline with Tween-80
[4] = dose: 200.0 mg/kg/injection, schedule: Q04DX003 (ip), vehicle: saline with Tween-80
[5] = dose: 400.0 mg/kg/injection, schedule: Q04DX003 (ip), vehicle: saline with Tween-80
[6] = dose: 100.0 mg/kg/injection, schedule: Q01DX001 (ip), vehicle: saline
[7] = dose: 200.0 mg/kg/injection, schedule: Q01DX001 (ip), vehicle: saline
[8] = dose: 400.0 mg/kg/injection, schedule: Q01DX001 (ip), vehicle: saline
[9] = dose: 100.0 mg/kg/injection, schedule: Q01DX001 (ip), vehicle: saline with Tween-80
[10] = dose: 200.0 mg/kg/injection, schedule: Q01DX001 (ip), vehicle: saline with Tween-80
[11] = dose: 400.0 mg/kg/injection, schedule: Q01DX001 (ip), vehicle: saline with Tween-80
[12] = dose: 100.0 mg/kg/injection, schedule: Q01DX009 (ip), vehicle: saline with Tween-80
[13] = dose: 100.0 mg/kg/injection, schedule: Q01DX001 (ip), vehicle: carboxymethylcellulose (CMC)
[14] = dose: 200.0 mg/kg/injection, schedule: Q01DX001 (ip), vehicle: carboxymethylcellulose (CMC)
[15] = dose: 400.0 mg/kg/injection, schedule: Q01DX001 (ip), vehicle: carboxymethylcellulose (CMC)
[16] = dose: 100.0 mg/kg/injection, schedule: Q01DX001 (ip), vehicle: Klucel (hydroxypropylcellulose) (HPC)
[17] = dose: 100.0 mg/kg/injection, schedule: Q04DX003 (ip), vehicle: Klucel (hydroxypropylcellulose) (HPC)
[18] = dose: 200.0 mg/kg/injection, schedule: Q01DX001 (ip), vehicle: Klucel (hydroxypropylcellulose) (HPC)
[19] = dose: 200.0 mg/kg/injection, schedule: Q04DX003 (ip), vehicle: Klucel (hydroxypropylcellulose) (HPC)
[20] = dose: 400.0 mg/kg/injection, schedule: Q01DX001 (ip), vehicle: Klucel (hydroxypropylcellulose) (HPC)
[21] = dose: 400.0 mg/kg/injection, schedule: Q04DX003 (ip), vehicle: Klucel (hydroxypropylcellulose) (HPC)
[22] = dose: 100.0 mg/kg/injection, schedule: Q01DX009 (ip), vehicle: Klucel (hydroxypropylcellulose) (HPC)
[23] = dose: 200.0 mg/kg/injection, schedule: Q01DX009 (ip), vehicle: Klucel (hydroxypropylcellulose) (HPC)
[24] = dose: 400.0 mg/kg/injection, schedule: Q01DX009 (ip), vehicle: Klucel (hydroxypropylcellulose) (HPC)

Measured: T/C

O=[N+]([O-])c1ccc2sc3ccccc3c2c1
inactive: [1] 108 % of control | [2] 97 % of control | dose: 400.0 mg/kg/injection, schedule: Q04DX002 (ip), vehicle: Klucel (hydroxypropylcellulose) (HPC) 101 % of control

C=C(Br)CNS(=O)(=O)c1ccc(OC)cc1
inactive: [3] 92 % of control | [4] 101 % of control | [5] 94 % of control

c1ccc2c(c1)NC(c1cccc3ccccc13)S2 (configuration not stated)
inactive: [6] 94 % of control | [7] 100 % of control | [8] 94 % of control

CCOC(=O)Nc1cc2c(c(NC(=O)OCC)n1)N=C(C)CN2 (tested in a mixture with another compound)
inactive: [9] 95 % of control | [10] 95 % of control | dose: 200.0 mg/kg/injection, schedule: Q04DX002 (ip), vehicle: saline with Tween-80 95 % of control | [11] 95 % of control | dose: 400.0 mg/kg/injection, schedule: Q04DX002 (ip), vehicle: saline with Tween-80 103 % of control | dose: 600.0 mg/kg/injection, schedule: Q04DX002 (ip), vehicle: saline with Tween-80 103 % of control

Cc1ccc(Cl)cc1NS(=O)(=O)c1cccc([N+](=O)[O-])c1
inactive: [12] 94 % of control | dose: 200.0 mg/kg/injection, schedule: Q01DX009 (ip), vehicle: saline with Tween-80 90 % of control

Nc1c(Br)cc(Br)c2c1-c1ccccc1C2=O
inactive: [13] 98 % of control | [14] 104 % of control | [15] 102 % of control

CC(=O)C1(C)C(=O)N(c2ccc(C)cc2)C(=O)N1c1ccc(C)cc1 (configuration not stated)
inactive: [6] 104 % of control | [7] 102 % of control | [8] 102 % of control

OC(CN1CCCCC1)c1ccc(/C=C/c2ccc(Cl)cc2)cc1 (configuration not stated)
inactive: dose: 6.25 mg/kg/injection, schedule: Q01DX009 (ip), vehicle: saline with Tween-80 101 % of control | dose: 6.25 mg/kg/injection, schedule: Q04DX003 (ip), vehicle: saline with Tween-80 93 % of control | dose: 12.5 mg/kg/injection, schedule: Q01DX009 (ip), vehicle: saline with Tween-80 93 % of control | dose: 12.5 mg/kg/injection, schedule: Q04DX003 (ip), vehicle: saline with Tween-80 88 % of control | dose: 25.0 mg/kg/injection, schedule: Q04DX003 (ip), vehicle: saline with Tween-80 98 % of control and 87 % of control | [9] 88 % of control

Nc1ncnc2c(-c3ccccc3)c[nH]c12
inactive: [16] 102 % of control | [17] 100 % of control | [18] 97 % of control | [19] 100 % of control | [20] 91 % of control | [21] 104 % of control

O=C(O)c1ccccc1C(=O)c1ccccc1
inactive: [16] 97 % of control | [18] 97 % of control | [20] 95 % of control

O=S(=O)(c1cc(Br)ccc1O)c1cc(Br)ccc1O
inactive: [6] 97 % of control | dose: 100.0 mg/kg/injection, schedule: Q04DX002 (ip), vehicle: gum acacia 93 % of control | [7] 95 % of control | dose: 200.0 mg/kg/injection, schedule: Q04DX002 (ip), vehicle: gum acacia 93 % of control | [8] 103 % of control | dose: 400.0 mg/kg/injection, schedule: Q04DX002 (ip), vehicle: gum acacia 93 % of control

Oc1c(O)c(Cl)c(Cl)c(Cl)c1Cl
inactive: dose: 12.5 mg/kg/injection, schedule: Q04DX003 (ip), vehicle: saline 97 % of control | dose: 25.0 mg/kg/injection, schedule: Q04DX003 (ip), vehicle: saline 95 % of control | dose: 50.0 mg/kg/injection, schedule: Q04DX003 (ip), vehicle: saline 98 % of control

COC(=O)CC(N)C(=O)OC (configuration not stated)
inactive: [6] 89 % of control | [7] 86 % of control | [8] 90 % of control

CC[P+](CCCCCCCCC[P+](CC)(Cc1ccccc1)c1ccccc1)(Cc1ccccc1)c1ccccc1 (configuration not stated)
inactive: dose: 5.0 mg/kg/injection, schedule: Q01DX001 (ip), vehicle: saline 105 % of control

CCC(=O)OC1CC2C3CCC4=CC(=O)CCC4(C)C3CCC2(C)C1OC(=O)CC (configuration not stated)
inactive: [22] 98 % of control | [17] 95 % of control | [23] 98 % of control | [19] 95 % of control | [24] 97 % of control | [21] 101 % of control

CCCCCCC(=O)N1CC(C)OC(C)C1 (configuration not stated)
inactive: [1] 96 % of control | [2] 96 % of control

NC(CS(N)(=O)=O)C(=O)O (configuration not stated)
inactive: dose: 75.0 mg/kg/injection, schedule: Q01DX001 (ip), vehicle: saline 97 % of control | dose: 150.0 mg/kg/injection, schedule: Q01DX001 (ip), vehicle: saline 103 % of control | dose: 300.0 mg/kg/injection, schedule: Q01DX001 (ip), vehicle: saline 102 % of control

O=C(Oc1ccccc1)Oc1c(Cl)cc([N+](=O)[O-])cc1[N+](=O)[O-]
inactive: [17] 100 % of control | [19] 100 % of control | [21] 93 % of control

COC1=NS(=O)(=O)CC(N2C(=O)CCC2=O)O1 (configuration not stated)
inactive: [17] 98 % of control | [19] 109 % of control | [21] 101 % of control

CCCN(CCC)C(=O)SCC
inactive: [9] 101 % of control | [3] 101 % of control and 105 % of control | [10] 97 % of control | [4] 100 % of control and 101 % of control | [11] 97 % of control | [5] 110 % of control and 117 % of control

Nc1nc(N)c(N=Nc2c(Br)cc(S(N)(=O)=O)cc2Br)c(N)n1
inactive: [13] 94 % of control | [14] 94 % of control | [15] 100 % of control

COc1cc(C(=O)O)c(O)c(OC)c1OC
inactive: [22] 96 % of control | [17] 98 % of control | [23] 106 % of control | [19] 101 % of control | [24] 101 % of control | [21] 104 % of control

O=C(CNC(=O)Nc1ccc(F)cc1)NNC(=O)Nc1ccc(Cl)c([N+](=O)[O-])c1
inactive: dose: 25.0 mg/kg/injection, schedule: Q01DX009 (ip), vehicle: saline with Tween-80 94 % of control | dose: 50.0 mg/kg/injection, schedule: Q01DX009 (ip), vehicle: saline with Tween-80 93 % of control | [12] 102 % of control
